The values below come from patent US11865195B2, “Evaluation of presence of and vulnerability to atrial fibrillation and other indications using matrix metalloproteinase-based imaging” (Lantheus Medical Imaging, Inc., priority 2011, dated 2024).

One data set has as its system MMPs. The conditions noted are these: cited from earlier work; for selectivity for MMP-2 and MMP-9 over the other MMPs: derivatized alanine hydroxamates.
Data set [1] in a line: Tissue biodistribution in the Oncomouse. Format: in vivo, mice. To be noted: tail vein injection, 1 h post-injection, mean±SEM. On the procedure:
Oncomice®, obtained through an in-house breeding program, were anesthetized intramuscularly with 0.1 mL of ketamine/acepromazine (1.8 mL saline, 1.0 mL ketamine, and 0.2 mL acepromazine) prior to dosing and tissue sampling. Individual mice were then injected via the tail vein with an imaging agent of the present invention (0.5-2.0 mCi/kg in 0.1 mL). Mice were euthanized and biodistribution performed at 1 h post-injection. Selected tissues were removed, weighed, and counted on a gamma counter. Results are expressed as the percentage of injected dose per gram tissue (mean±SEM; Table 3).

A further data set deals with T1, activated MMP-2 (Homo sapiens, UniProt P08253).
T1 construct: purchased R&D Systems
T1 sequence (P08253 110-660): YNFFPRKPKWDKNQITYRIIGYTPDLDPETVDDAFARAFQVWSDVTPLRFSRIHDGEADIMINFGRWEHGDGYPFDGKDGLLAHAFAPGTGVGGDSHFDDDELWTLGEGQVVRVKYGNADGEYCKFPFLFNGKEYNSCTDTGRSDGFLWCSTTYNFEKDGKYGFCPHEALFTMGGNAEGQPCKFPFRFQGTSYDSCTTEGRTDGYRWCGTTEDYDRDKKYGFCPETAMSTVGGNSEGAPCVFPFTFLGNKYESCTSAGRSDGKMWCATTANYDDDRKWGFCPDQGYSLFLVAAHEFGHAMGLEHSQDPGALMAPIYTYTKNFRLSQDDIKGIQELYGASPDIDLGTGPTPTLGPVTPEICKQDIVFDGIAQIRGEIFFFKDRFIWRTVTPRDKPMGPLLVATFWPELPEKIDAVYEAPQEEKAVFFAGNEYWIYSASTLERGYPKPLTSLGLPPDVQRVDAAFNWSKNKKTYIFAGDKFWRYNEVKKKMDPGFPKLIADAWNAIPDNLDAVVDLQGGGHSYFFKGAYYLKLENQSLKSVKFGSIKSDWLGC
As to the kind of experiment: In-vitro MMP inhibition assay (fluorogenic peptide substrate). Format: biochemical. To be noted: 1 h at 27° C., triplicate. On the procedure:
(§1) Individual inhibitors were dissolved in TCN buffer (50 mM Tris-HCl, 10 mM CaCl2, 150 mM […], 0.05% Brij 35 at pH 7.5) at appropriate dilutions then added to the wells of a microtiter plate (10 μL/well) in triplicate. Each well of test agent (and appropriate control wells) was then treated with activated MMP-2 or 9 (10 μL of a 40 nM solution in 50 mM Hepes, 10 mM CaCl2), 1% Brij 35 at pH 7.5; R&D Systems) followed by 30 μL TCN buffer and 150 μL the fluorogenic peptide substrate (Mca-PLGL-Dpa-AR-NH2; R&D Systems). The resulting mixtures were incubated 1 h at 27° C. then analyzed using a FL600 fluorescent plate reader (excitation=310/20; emission=420/50; optics=bottom; sensitivity=225) and KC4 Software.

Another data set deals with T2, activated MMP-9 (Homo sapiens, UniProt P14780).
T2 construct: purchased R&D Systems
T2 sequence (P14780 107-707 limits assumed): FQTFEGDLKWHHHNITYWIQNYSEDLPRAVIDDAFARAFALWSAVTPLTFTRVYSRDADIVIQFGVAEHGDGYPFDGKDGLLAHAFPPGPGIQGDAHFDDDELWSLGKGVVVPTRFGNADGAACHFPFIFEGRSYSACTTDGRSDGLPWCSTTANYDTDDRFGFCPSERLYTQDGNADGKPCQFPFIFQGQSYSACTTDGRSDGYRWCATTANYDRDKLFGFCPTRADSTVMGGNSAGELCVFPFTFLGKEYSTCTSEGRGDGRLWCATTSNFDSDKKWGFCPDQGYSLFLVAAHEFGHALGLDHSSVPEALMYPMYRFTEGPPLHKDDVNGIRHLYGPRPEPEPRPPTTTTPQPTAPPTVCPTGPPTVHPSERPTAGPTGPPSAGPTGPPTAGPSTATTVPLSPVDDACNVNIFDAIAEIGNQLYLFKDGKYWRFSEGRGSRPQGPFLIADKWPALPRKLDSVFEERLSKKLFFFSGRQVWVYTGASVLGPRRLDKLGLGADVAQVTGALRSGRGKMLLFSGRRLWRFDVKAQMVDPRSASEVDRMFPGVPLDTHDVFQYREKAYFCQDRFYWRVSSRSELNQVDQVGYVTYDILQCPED
Described as above. Format: biochemical. The conditions noted are these: 1 h at 27° C., triplicate. As for the experimental part:
as §1

A further data set concerns activated MMPs. Kind of data set: MicroSPECT/CT imaging of aortic arch MMP activation in ApoE-/- mice under anti-lipid therapies. In kind it is in vivo. To be noted: 4 weeks of therapy; HFD group 4.99±0.27. As for the experimental part:
Methods: ApoE^−/− mice were fed a high fat diet (HFD) for 2 months to induce atherosclerosis. After two months, the mice were randomly assigned to one of 4 groups: HFD, HFD plus simvastatin (Sim), HFD plus fenofibrate (Fen) and high fat withdrawal (HFW). MicroSPECT/CT imaging using ^99mTc-RP805, a tracer with specificity for activated MMPs was performed after one week and 4 weeks.

Molecules are shown by their SMILES. Where two headings read alike, the source gives them in different places.

A word on the IC50: it is the midpoint of a concentration-inhibition curve. A higher IC50 goes with weaker potency in that assay.

For the molecule `COc1ccc(Oc2ccc([C@]3(C)CCN([C@H](C)C(=O)NO)C3=O)cc2)cc1OC` [1-11], the “selectivity for MMP-2 and MMP-9 over the other MMPs” value with MMPs was “show selectivity”.

On to `CC(C)C[C@H]1C(=O)N[C@H](C(=O)NCC(=O)NCCCCCF)Cc2ccc(cc2)OCCC[C@@H]1C(=O)NO` [Imaging Agent 4], for which, in data set [1], the “Imaging agent distribution, blood” value is given as 0.41 ± 0.099 % ID/g; the “Imaging agent distribution, bone” value stood at 1.28 ± 0.200 % ID/g; the “Imaging agent distribution, heart” value is 0.36 ± 0.064 % ID/g; the “Imaging agent distribution, kidney” value is recorded as 14.8 ± 1.79 % ID/g. Besides, in data set [1], the “Imaging agent distribution, liver” value is 23.6 ± 5.19 % ID/g; the “Imaging agent distribution, lung” value is recorded as 0.45 ± 0.071 % ID/g; the “Imaging agent distribution, muscle” value is 0.17 ± 0.043 % ID/g; the “Imaging agent distribution, spleen” value is reported as 0.34 ± 0.057 % ID/g. Besides, in data set [1], the “Imaging agent distribution, tumor” value is 1.12 ± 0.204 % ID/g and the “Imaging agent distribution, urine” value turned out to be 7.67 ± 5.00 % ID/g. The same molecule returned an IC50 against activated MMP-2 of 15.4 nM. The IC50 on activated MMP-9 worked out at 15.3 nM.

Turning to `CCCCCCC[C@H](CC(=O)CS)C(=O)N[C@H](C(=O)NC)C(C)(C)C` [1-15], the “activity against MMPs” value in the data set with MMPs (succinyl thiol) is reported as “good activity”.

Take `CC(C)C[C@H]1C(=O)N[C@H](C(=O)NCCCCCCF)Cc2ccc(cc2)OCCC[C@@H]1C(=O)NO` [Imaging Agent 2]: in data set [1], the “Imaging agent distribution, blood” value came to 1.07 ± 0.060 % ID/g; the “Imaging agent distribution, bone” value is 2.02 ± 0.320 % ID/g; the “Imaging agent distribution, heart” value came out at 0.95 ± 0.065 % ID/g; the “Imaging agent distribution, kidney” value is reported as 20.6 ± 3.25 % ID/g. Also, in data set [1], the “Imaging agent distribution, liver” value was determined as 13.1 ± 2.17 % ID/g; the “Imaging agent distribution, lung” value amounted to 0.97 ± 0.121 % ID/g; the “Imaging agent distribution, muscle” value turned out to be 0.50 ± 0.073 % ID/g; the “Imaging agent distribution, spleen” value is 0.69 ± 0.085 % ID/g. Besides, in data set [1], the “Imaging agent distribution, tumor” value was 0.95 ± 0.103 % ID/g and the “Imaging agent distribution, urine” value is given as 71.8 % ID/g. Also, at activated MMP-2, 31.6 nM corresponded to half-maximal inhibition (IC50). The same molecule displayed an IC50 at activated MMP-9 of 20.2 nM.

Regarding `CNC(=O)[C@@H]1Cc2ccc(cc2)OCCC[C@H](C(=O)NO)[C@@H](CC(C)C)C(=O)N1` [1-6], the “activity against MMPs” value in the data set with MMPs (macrocyclic succinyl hydroxamate) is reported as “nanomolar activity”.

For the molecule `CCCCCCCCC[C@H](CC(=O)NO)C(=O)N[C@H](C(=O)NC)C(C)(C)C` [1-5], the “selectivity for MMP-2 over MMP-1 and MMP-3” value in the data set with MMPs (long alkyl substituent at P1' position) is “imparts selectivity”.

As to `CC(C)C[C@H]1C(=O)N[C@H](C(=O)NCc2ccc(OCCCF)cc2)Cc2ccc(cc2)OCCC[C@@H]1C(=O)NO` [Imaging Agent 6], in data set [1], the “Imaging agent distribution, blood” value is on record as 0.88 ± 0.061 % ID/g; the “Imaging agent distribution, bone” value is 2.86 ± 0.124 % ID/g; the “Imaging agent distribution, heart” value came to 0.69 ± 0.073 % ID/g; the “Imaging agent distribution, kidney” value worked out at 6.66 ± 1.46 % ID/g. Further, in data set [1], the “Imaging agent distribution, liver” value is on record as 11.3 ± 1.73 % ID/g; the “Imaging agent distribution, lung” value is 1.69 ± 0.382 % ID/g; the “Imaging agent distribution, muscle” value was found to be 0.44 ± 0.049 % ID/g; the “Imaging agent distribution, spleen” value turned out to be 0.81 ± 0.021 % ID/g. In data set [1], the “Imaging agent distribution, tumor” value was determined as 0.73 ± 0.026 % ID/g and the “Imaging agent distribution, urine” value was determined as 7.21 ± 6.71 % ID/g. Also, 2.74 nM corresponded to half-maximal inhibition against activated MMP-2 (IC50). This molecule also displayed an IC50 at activated MMP-9 of 2.98 nM.

For the molecule `CC(C)C[C@H]1C(=O)N[C@H](C(=O)NCCCF)Cc2ccc(cc2)OCCC[C@@H]1C(=O)NO` [Imaging Agent 1], the IC50 against activated MMP-2 was found to be 5.19 nM; against activated MMP-9, 3.54 nM.

Turning to `CC(C)OC(=O)C(C)(C)Oc1ccc(C(=O)c2ccc(Cl)cc2)cc1` [fenofibrate], in the data set with activated MMPs, the “99mTc-RP805 uptake in the aortic arch under HFD plus anti-lipid drug” value is reported as 2.23±0.28 counts per voxel per mCi injected dose.

On to `CC(C)C[C@H]1C(=O)N[C@H](C(=O)NCc2ccc(F)cc2)Cc2ccc(cc2)OCCC[C@@H]1C(=O)NO` [Imaging Agent 5], for which the IC50 against activated MMP-2 is 0.58 nM; against activated MMP-9, 0.74 nM.

For the molecule `C[C@H](C(=O)NO)N1CCNc2cc(OCc3ccccc3)ccc2S1(=O)=O` [1-12], the “selectivity for MMP-2 and MMP-9 over the other MMPs” value in the data set with MMPs is “show selectivity”.

For the molecule `O=C(NO)C1CCCN[C@@H]1C(=O)N1CCC(c2ccccc2)CC1` (stereo partly drawn) [1-8], the “inhibition of MMPs” value in the data set with MMPs (succinyl hydroxamate with modified P2' and P3' positions) is listed as “potent inhibition”.

As to `CC(C)C[C@H]1C(=O)N[C@H](C(=O)NCC(=O)NCCCF)Cc2ccc(cc2)OCCC[C@@H]1C(=O)NO` [Imaging Agent 3], the values for the IC50 at activated MMP-2 and against activated MMP-9 were 4.61 nM and 2.59 nM, respectively.

For `CCC(C)(C)C(=O)O[C@H]1C[C@@H](C)C=C2C=C[C@H](C)[C@H](CC[C@@H]3C[C@@H](O)CC(=O)O3)[C@H]21` [simvastatin], the “99mTc-RP805 uptake in the aortic arch under HFD plus anti-lipid drug” value in the data set with activated MMPs is recorded as 3.17±0.52 counts per voxel per mCi injected dose.

Turning to `O=C(NO)C1(CS(=O)(=O)c2ccc(Oc3ccc(Cl)cc3)cc2)CCOCC1` [1-13], the “selectivity for MMP-2 and MMP-9 over MMP-1” value in the data set with MMPs was “selectivity”.
